Reference: PubChem BioAssay AID248 (DTP/NCI, 2004)
Toxic doses and inconclusive results are not listed. No stated cut-off is given here; in the data, active means T/C of 150% or more; inactive means T/C below 125%.

Tested on: L1210 leukemia ip in BDF1 mice, survival T/C
Test: NCI In Vivo Anticancer Drug Screen. Data for tumor model L1210 Leukemia (intraperitoneal) in B6D2F1 (BDF1) mice
Conditions: endpoint: mean survival time, higher = longer survival
Summary of the method: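 Transplanted-tumor mice were given test agent; controls received vehicle only. Survival readings from the two groups were divided (treated over control).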

[1] = dose: 100.0 mg/kg/injection, schedule: Q04DX003 (ip), vehicle: saline
[2] = dose: 200.0 mg/kg/injection, schedule: Q04DX003 (ip), vehicle: saline
[3] = dose: 400.0 mg/kg/injection, schedule: Q04DX003 (ip), vehicle: saline

Measured: T/C

NCc1cc2c3c(c1)CCCN3CCC2
inactive: dose: 12.5 mg/kg/injection, schedule: Q01DX001 (ip), vehicle: saline 111 % of control | dose: 12.5 mg/kg/injection, schedule: Q01DX009 (ip), vehicle: saline 97 % of control | dose: 25.0 mg/kg/injection, schedule: Q01DX001 (ip), vehicle: saline 107 % of control | dose: 25.0 mg/kg/injection, schedule: Q01DX009 (ip), vehicle: saline 97 % of control | dose: 50.0 mg/kg/injection, schedule: Q01DX001 (ip), vehicle: saline 105 % of control | dose: 50.0 mg/kg/injection, schedule: Q01DX009 (ip), vehicle: saline 104 % of control

c1cc2c(c3c1CC1c4cc5c(cc4CCN1C3)OCO5)OCO2 (centres undefined)
inactive: dose: 100.0 mg/kg/injection, schedule: Q01DX001 (ip), vehicle: saline 86 % of control

COc1ccc(Cl)cc1NC(=O)Nc1cccc(F)c1
inactive: dose: 100.0 mg/kg/injection, schedule: Q01DX009 (ip), vehicle: Klucel (hydroxypropylcellulose) (HPC) 97 % of control | dose: 200.0 mg/kg/injection, schedule: Q01DX009 (ip), vehicle: Klucel (hydroxypropylcellulose) (HPC) 97 % of control | dose: 400.0 mg/kg/injection, schedule: Q01DX009 (ip), vehicle: Klucel (hydroxypropylcellulose) (HPC) 97 % of control

O=c1[nH]cnc2c1ncn2-c1ccc(N(CCO)CCO)cc1
inactive: dose: 50.0 mg/kg/injection, schedule: Q01DX001 (ip), vehicle: carboxymethylcellulose (CMC) 98 % of control | dose: 100.0 mg/kg/injection, schedule: Q01DX001 (ip), vehicle: carboxymethylcellulose (CMC) 115 % of control | dose: 200.0 mg/kg/injection, schedule: Q01DX001 (ip), vehicle: carboxymethylcellulose (CMC) 95 % of control | dose: 400.0 mg/kg/injection, schedule: Q01DX001 (ip), vehicle: carboxymethylcellulose (CMC) 98 % of control

O=[N+]([O-])c1ccc(C2=NCCO2)cc1
inactive: dose: 100.0 mg/kg/injection, schedule: Q04DX002 (ip), vehicle: saline 104 % of control | dose: 200.0 mg/kg/injection, schedule: Q04DX002 (ip), vehicle: saline 114 % of control | dose: 400.0 mg/kg/injection, schedule: Q04DX002 (ip), vehicle: saline 104 % of control

COc1ccc(NC(=S)Nc2ccccn2)cc1
inactive: dose: 100.0 mg/kg/injection, schedule: Q01DX009 (ip), vehicle: other 106 % of control | [1] 101 % of control | dose: 200.0 mg/kg/injection, schedule: Q01DX009 (ip), vehicle: other 97 % of control | [2] 87 % of control | dose: 400.0 mg/kg/injection, schedule: Q01DX009 (ip), vehicle: other 103 % of control | [3] 98 % of control

Nc1ccc(NS(=O)(=O)CS(=O)(=O)Nc2ccc(N)cc2)cc1
inactive: dose: 10.0 mg/kg/injection, schedule: Q01DX001 (ip), vehicle: saline 96 % of control | dose: 20.0 mg/kg/injection, schedule: Q01DX001 (ip), vehicle: saline 101 % of control | dose: 40.0 mg/kg/injection, schedule: Q01DX001 (ip), vehicle: saline 101 % of control

Cc1cccc(/C2=C/CCCCCC2)c1
inactive: dose: 37.5 mg/kg/injection, schedule: Q01DX009 (ip), vehicle: saline 100 % of control | dose: 75.0 mg/kg/injection, schedule: Q01DX001 (ip), vehicle: acetone 89 % of control | dose: 75.0 mg/kg/injection, schedule: Q01DX009 (ip), vehicle: saline 103 % of control | dose: 150.0 mg/kg/injection, schedule: Q01DX001 (ip), vehicle: acetone 88 % of control | dose: 150.0 mg/kg/injection, schedule: Q01DX009 (ip), vehicle: saline 115 % of control | dose: 225.0 mg/kg/injection, schedule: Q01DX009 (ip), vehicle: acetone 92 % of control | dose: 300.0 mg/kg/injection, schedule: Q01DX001 (ip), vehicle: acetone 93 % of control

O=C(n1ccnc1)C(F)(F)C(F)(F)C(F)(F)F
inactive: dose: 100.0 mg/kg/injection, schedule: Q01DX001 (ip), vehicle: saline sonified 101 % of control | [1] 96 % of control | dose: 200.0 mg/kg/injection, schedule: Q01DX001 (ip), vehicle: saline sonified 110 % of control | [2] 96 % of control | dose: 400.0 mg/kg/injection, schedule: Q01DX001 (ip), vehicle: saline sonified 106 % of control | [3] 89 % of control
